The results in this text go back to ChEMBL document CHEMBL2390945, “Synthesis and characterization of 123I-CMICE-013: a potential SPECT myocardial perfusion imaging agent” (Bioorg Med Chem, 2013).

Molecules are shown by their SMILES.

Data set [1] in a line: Biodistribution in rat liver at 15 mins. The class given is ADME, organism-based. Particulars: read-out: Drug uptake; call rule not given here.
Data set [2] can be described thus: Biodistribution in rat liver at 60 mins. The data set is classed as ADME, organism-based. Particulars: read-out: Drug uptake.
Another data set concerns Muscle tissue. Put plainly: Biodistribution in Sprague-Dawley rat muscle at 24 hrs by gamma counting analysis. The data set is classed as ADME, organism-based. Particulars: in vivo.
For a further data set, the system named is Kidney. Put plainly: Biodistribution in Sprague-Dawley rat kidney at 24 hrs by gamma counting analysis. The data set is classed as ADME, organism-based. Particulars: in vivo.
Data set [3] relates to Lung. The data set can be described thus: Biodistribution in Sprague-Dawley rat lung at 2 hrs by gamma counting analysis. The class given is ADME, organism-based. Particulars: in vivo.
In data set [4] the test system is Brain. The data set can be described thus: Biodistribution in Sprague-Dawley rat brain at 24 hrs by gamma counting analysis. The class given is ADME, organism-based. Particulars: in vivo.
In data set [5] the test system is Heart. Put plainly: Biodistribution in Sprague-Dawley rat heart at 2 hrs by gamma counting analysis. The class given is ADME, organism-based. Particulars: in vivo.
The test system of data set [6] is Liver. Put plainly: Biodistribution in Sprague-Dawley rat liver at 2 hrs by gamma counting analysis. The data set is classed as ADME, organism-based. Particulars: in vivo.
The subject of data set [7] is Lung. The data set can be described thus: Biodistribution in Sprague-Dawley rat lung at 24 hrs by gamma counting analysis. Particulars: in vivo. The data set is classed as ADME, organism-based.
Data set [8] can be described thus: Ratio of drug level in heart to blood in Sprague-Dawley rat measured at 2 hrs. The class given is ADME.
In another data set the test system is Spleen. The data set can be described thus: Biodistribution in Sprague-Dawley rat spleen at 24 hrs by gamma counting analysis. The class given is ADME, organism-based. Particulars: in vivo.
Data set [9] relates to Heart. Put plainly: Biodistribution in Sprague-Dawley rat heart at 24 hrs by gamma counting analysis. Particulars: in vivo. The class given is ADME, organism-based.
The nature of data set [10]: Ratio of drug level in heart to lung in Sprague-Dawley rat measured at 2 hrs. Particulars: in vivo.
The test system of data set [11] is Blood. The data set can be described thus: Biodistribution in Sprague-Dawley rat blood at 24 hrs by gamma counting analysis. The class given is ADME, organism-based. Particulars: in vivo.
Data set [12] deals with Thyroid gland. Put plainly: Biodistribution in Sprague-Dawley rat thyroid assessed per organ at 2 hrs by gamma counting analysis. The class given is ADME, organism-based. Particulars: in vivo.
A short description of data set [13]: Ratio of drug level in heart to liver in Sprague-Dawley rat measured at 2 hrs. Particulars: in vivo.
The test system of data set [14] is Blood. Put plainly: Biodistribution in Sprague-Dawley rat blood at 2 hrs by gamma counting analysis. Particulars: in vivo. The class given is ADME, organism-based.
For data set [15], the system named is Liver. Put plainly: Biodistribution in Sprague-Dawley rat liver at 24 hrs by gamma counting analysis. The class given is ADME, organism-based. Particulars: in vivo.
The subject of data set [16] is Thyroid gland. The data set can be described thus: Biodistribution in Sprague-Dawley rat thyroid assessed per organ at 24 hrs by gamma counting analysis. Particulars: in vivo. The class given is ADME, organism-based.
The test system of data set [17] is Brain. Put plainly: Biodistribution in Sprague-Dawley rat brain at 2 hrs by gamma counting analysis. Particulars: in vivo. The data set is classed as ADME, organism-based.

Take `CC(C)(C)n1ncc(OCc2ccc(CCCC[18F])cc2)c(Cl)c1=O`: in data set [1], the tissue uptake at 0.25 h was 1.6 %ID/g. The tissue uptake at 1 h in data set [2] is 1.3 %ID/g.
Consider `COc1cc2c(cc1OC)[C@@H]1C(=O)c3ccc4c(c3O[C@@H]1CO2)C[C@H](/C(C)=C\[125I])O4`, for which the Drug uptake result in the data set on Muscle tissue is “Active”; in the data set with Kidney, “Active”; in the data set on Lung [3], 0.33 %Idose/kg; in the data set on Brain [4] it was “Active”; in the data set with Heart [5], 2.96 %Idose/kg; in the data set on Liver [6], 1.17 %Idose/kg. In addition, the Drug uptake entry with Lung [7] is “Active”; in the data set with Spleen, “Active”; in the data set on Heart [9] it was “Active”; in the data set on Blood [11] it was 0.06 % ID/g; with Thyroid gland [12] it was 0.34 %ID; in the data set with Blood [14], 0.14 %Idose/kg. Besides, the Drug uptake result with Liver [15] is reported as “Active”; in the data set with Thyroid gland [16], 3.78 %ID; in the data set on Brain [17] it was 0.34 %Idose/kg. Moreover, in data set [8], the Kp at 2 h is 22.4. The figures for the Ratio in data set [10] and in data set [13] were 9.32 and 2.57, respectively.

What is called Kp is tissue or fluid exposure divided by exposure in the circulation.
